Read-outs that look alike come from different tables or passages of the source.

Series [1] has as its system T. gondii RH-2 F tachyzoites. In words: Five-day growth inhibition assay (tachyzoite growth, colorimetric). The format is cell-based, Toxoplasma gondii. The conditions noted are these: 120 h; for IC50: read-out: IC50, median inhibitory concentration, a measure of tachyzoite inhibition; for IC90: read-out: IC90, concentration at which 90% of the tachyzoite growth is inhibited. How it is done: (§1) Using published methods[8]^,[19], all of the prepared N-substituted thiazolidinones derivatives were evaluated in vitro for (i) host cell cytotoxicity as well as for the ability to inhibit tachyzoite growth over a period of 5 days (Table 1), for (ii) the ability to inhibit tachyzoite invasion of host cells (Figure 1), and for (iii) the ability to inhibit intracellular tachyzoite replication (Figure 2).
(§2) Compounds were tested for the ability to inhibit in vitro tachyzoite (T. gondii RH-2 F (50839); ATCC, VA) and human foreskin fibroblast (HFF; ATCC) growth for 120 h using a published colorimetric assay[8]^,[19]. Stock solutions of all compounds were 10 mM in DMSO. Serial 0.5 log10 dilutions (320–0.032 μM) of each compound were tested. Data from three separate experiments were analysed and the IC50, IC90, and TD50 calculated using Calcusyn software (Biosoft, Cambridge, UK). The therapeutic index (TI), a measure of specific anti-T. gondii activity, was calculated with the formula shown under Table 1.
We explored the chemical space and the influence on the biological activity of different groups (substituted aromatic and bicyclic rings) at the lactam NH of the core nucleus. […] In the five-day growth inhibition assay, compounds were added only once, just before addition of tachyzoites, and thus were present for multiple cycles, up to 20, of parasite replication.

The subject of series [2] is extracellular T. gondii tachyzoites invading HFF host cells. The experiment in a line: Red/green invasion assay (immunofluorescence). The class given is cell-based, Toxoplasma gondii. The conditions noted are these: 10 μM, 20 min preincubation, 1 h at 37 °C on HFF, vs vehicle, p ≤ .05. Here is the method:
Figure 1. Invasion assay of ferrocene-based thiazolidinone derivatives (10 μM). VHL: vehicle (DMSO). *Significant inhibition of tachyzoite invasion (p ≤ .05, two-tailed Students’ t test). **Significant inhibition of tachyzoite attachment (p ≤ .05, two-tailed Students’ t test). Data are compiled from results of three independent experiments.
The ferrocene-based derivatives (10 μM) were examined for activity directly on extracellular tachyzoites using an established immunofluorescence-based red/green invasion assay. This assay measures a compound’s ability to impede the parasite-driven host cell entry of tachyzoites through the host cell plasma membrane. Invaded (intracellular) tachyzoites are labelled green while tachyzoites attached to the surface, but unable to invade, are labelled red. A decrease in the number of invaded tachyzoites relative to vehicle [VHL (DMSO)] is indicative of invasion inhibition. A decrease in the number of invaded plus attached tachyzoites relative to same of VHL is indicative of inhibition of attachment. Data shown are mean values ± SEM of three independent experiments.
We next evaluated the ability of the ferrocene-based derivatives to act directly upon extracellular tachyzoites by using a standard red/green invasion assay. This assay interrogates compounds for inhibition of the first step in host cell infection, i.e. invasion and entry into susceptible cells. In this assay (Figure 1), cell-free purified tachyzoites were incubated with a test compound (10 μM), sulfadiazine (10 μM), or VHL for 20 min at room temperature before being added to HFF host cells. After allowing 1 h at 37 °C for the tachyzoites to attach and invade, the cells were processed by immunofluorescent staining. Extracellular/attached tachyzoites were labelled red while intracellular/penetrated tachyzoites were labelled green.

Series [3] deals with human foreskin fibroblast (HFF). In words: Five-day growth inhibition assay, host cell cytotoxicity. The conditions noted are these: 120 h. How it is done:
as §1, §2

In series [4] the test system is intracellular T. gondii tachyzoites. The experiment in a line: Replication assay (immunofluorescence, tachyzoites per parasitophorous vacuole). The format is cell-based, Toxoplasma gondii. The conditions noted are these: 10 μM, added 2 h after infection, 24 h. How it is done:
Figure 2. Replication assay of ferrocene-based thiazolidinone derivatives (10 μM). VHL: vehicle (DMSO); Tz: tachyzoites. Data are compiled from results of three independent experiments.
This assay measures a compound’s ability to inhibit tachyzoite replication over a period of 24 h. The numbers of parasitophorous vacuoles (PV) in experimentally treated infected cells containing 1, 2, 4, or 8 + tachyzoites/vacuole were enumerated, graphed, and compared to those of the VHL-treated infected cells. Data for each size vacuole are shown as the fraction of the total number of vacuoles counted in 10–15 fields. Data shown were compiled from three independent experiments. A decrease in the number of tachyzoites in a vacuole indicates inhibition of replication. Toxoplasma gondii tachyzoites only replicate within the PV inside the host cell with one cycle of replication taking 6–8 h. […] Consequently, a decrease in the number of intravacuolar tachyzoites relative to that of VHL indicates inhibition of replication. Specifically, predominance, i.e. the largest fraction of the total number, of PVs containing 1 or 2 tachyzoites indicates replication inhibition.
Lastly, the replication assay interrogates a compound’s ability to inhibit an established intracellular Toxoplasma infection over the relatively short period of 24 h (3–4 cycles of replication). […] Likewise, allowance of just one cycle of replication results in a majority of PVs containing just two tachyzoites. However, a predominance of PVs containing eight or more tachyzoites indicates absence of inhibitory activity over a 24 h period (see detailed explanation above in Experimental Protocols).

[5] abbreviates: T. gondii RH-2 F in HFF, three experiments.
[6] abbreviates: HFF cells, top concentration 320 μM.
Where [7] appears, read: Toxoplasma gondii, T. gondii RH-2 F in HFF, three experiments.

As for `CC(=NN=C1SCC(=O)N1Cc1ccccc1[N+](=O)[O-])c1ccc[cH-]1.[Fe+2].c1cc[cH-]c1` [Compound 3, 3-(2-Nitrobenzyl)-2-((1-(ferrocen-2-yl)ethylidene)hydrazono)thiazolidin-4-one], in series [1] (setting [5]), the IC50 amounted to 15 µM and the IC90 stood at 78 µM. The “Inhibition of tachyzoite invasion” value in series [2] was “notable exceptions”. Also, the “TD50, median toxicity dose, a measure of cytotoxicity against host cells” value (“TD50, median toxicity dose, a measure” below) in series [3] (setting [6]) was at least 320 µM.

Consider `CC(=NN=C1SCC(=O)N1Cc1ccc([N+](=O)[O-])cc1)c1ccc[cH-]1.[Fe+2].c1cc[cH-]c1` [Compound 9, 3-(4-Nitrobenzyl)-2-((1-(ferrocen-2-yl)ethylidene)hydrazono)thiazolidin-4-one], for which, in series [1] (setting [5]), the IC50 was 73 µM and the IC90 amounted to 292 µM. The “Inhibition of tachyzoite attachment” value in series [2] is reported as “significantly inhibited attachment”. Besides, the “TD50, median toxicity dose, a measure” value in series [3] (setting [6]) amounted to 217 µM.

On to `CC(=NN=C1SCC(=O)N1Cc1ccccc1F)c1ccc[cH-]1.[Fe+2].c1cc[cH-]c1` [Compound 12, 3-(2-Fluorobenzyl)-2-((1-(ferrocen-2-yl)ethylidene)hydrazono)thiazolidin-4-one], for which, in series [1] (setting [5]), the IC50 stood at 17 µM and the IC90 was found to be 64 µM. Moreover, the “TD50, median toxicity dose, a measure” value in series [3] (setting [6]) is at least 320 µM. In series [4], the “Fraction of PVs containing eight or more tachyzoites” value (shortened to “Fraction”) is listed as 10–18% and the “Inhibition of intracellular tachyzoite replication” value was “modest inhibition”.

For the compound `CC(=NN=C1SCC(=O)N1Cc1cccc(F)c1)c1ccc[cH-]1.[Fe+2].c1cc[cH-]c1` [Compound 15, 3-(3-Fluorobenzyl)-2-((1-(ferrocen-2-yl)ethylidene)hydrazono)thiazolidin-4-one], in series [1] (setting [5]), the IC50 was 8 µM and the IC90 was 57 µM. Also, the “Inhibition of tachyzoite attachment” value in series [2] is recorded as “significantly inhibited attachment”. In addition, the “TD50, median toxicity dose, a measure” value in series [3] (setting [6]) was at least 320 µM.

As for `CC(=NN=C1SCC(=O)N1Cc1ccc(F)cc1)c1cccs1` [Compound 17, 3-(4-Fluorobenzyl)-2-((1-(thiophen-2-yl)ethylidene)hydrazono)thiazolidin-4-one], the melting point was in the range of 118 to 123 °C. In series [1] (setting [7]), the IC50 came to 72 µM and the IC90 worked out at 312 µM. For the same compound, the “TD50, median toxicity dose, a measure” value in series [3] (human) is at least 320 µM.

For the compound `CC(=NN=C1SCC(=O)N1Cc1ccc(F)cc1)c1ccc[cH-]1.[Fe+2].c1cc[cH-]c1` [Compound 18, 3-(4-Fluorobenzyl)-2-((1-(ferrocen-2-yl)ethylidene)hydrazono)thiazolidin-4-one], in series [1] (setting [5]), the IC50 is 6 µM and the IC90 worked out at 16 µM. For the same compound, in series [3] (setting [6]), the “TD50, median toxicity dose, a measure” value was at least 320 µM. Further, in series [4], the “Fraction” value is 10–18% and the “Inhibition of intracellular tachyzoite replication” value is on record as “modest inhibition”.

The compound `CC(=NN=C1SCC(=O)N1Cc1ccccc1Cl)c1cccs1` [Compound 20, 3-(2-Chlorobenzyl)-2-((1-(thiophen-2-yl)ethylidene)hydrazono)thiazolidin-4-one] yielded a melting point of 100 to 102 °C. In series [1] (setting [7]), the IC50 is 34 µM and the IC90 is 112 µM. Besides, the “TD50, median toxicity dose, a measure” value in series [3] (human) stood at 84 µM.

As to `CC(=NN=C1SCC(=O)N1Cc1cccc(Cl)c1)c1cccs1` [Compound 23, 3-(3-Chlorobenzyl)-2-((1-(thiophen-2-yl)ethylidene)hydrazono)thiazolidin-4-one], the melting point was 129 to 131 °C. Further, in series [1] (setting [7]), the IC50 was determined as 51 µM and the IC90 was found to be 256 µM. Also, the “TD50, median toxicity dose, a measure” value in series [3] (human) came out at 147 µM.

`CC(=NN=C1SCC(=O)N1Cc1ccc(Cl)cc1)c1cccs1` [Compound 26, 3-(4-Chlorobenzyl)-2-((1-(thiophen-2-yl)ethylidene)hydrazono)thiazolidin-4-one] gave a melting point of 146 to 151 °C. In series [1] (setting [7]), the IC50 came out at 81 µM and the IC90 stood at 211 µM. Also, the “TD50, median toxicity dose, a measure” value in series [3] (human) is at least 320 µM.

Turning to `CC(=NN=C1SCC(=O)N1Cc1ccc(Cl)cc1)c1ccc[cH-]1.[Fe+2].c1cc[cH-]c1` [Compound 27, 3-(4-Chlorobenzyl)-2-((1-(ferrocen-2-yl)ethylidene)hydrazono)thiazolidin-4-one], in series [1] (setting [5]), the IC50 was found to be 10 µM and the IC90 was determined as 55 µM. Moreover, the “Inhibition of tachyzoite invasion” value in series [2] is reported as “notable exceptions”. The “TD50, median toxicity dose, a measure” value in series [3] (setting [6]) was at least 320 µM. Besides, in series [4], the “Fraction” value was at most 1% and the “Inhibition of intracellular tachyzoite replication” value is “fairly strong inhibition”.

Turning to `CC(=NN=C1SCC(=O)N1Cc1cccc2ccccc12)c1ccc[cH-]1.[Fe+2].c1cc[cH-]c1` [Compound 30, 3-(Naphthalen-1-ylmethyl)-2-((1-(ferrocen-2-yl)ethylidene)hydrazono)thiazolidin-4-one], in series [1] (setting [5]), the IC50 is 5 µM and the IC90 is 17 µM. The “Inhibition of tachyzoite attachment” value in series [2] is given as “significantly inhibited attachment”. Moreover, the “TD50, median toxicity dose, a measure” value in series [3] (setting [6]) is at least 320 µM.

As to `Nc1ccc(S(=O)(=O)Nc2ncccn2)cc1` [Sulfadiazine, reference compound], in series [1] (Toxoplasma gondii), the IC50 turned out to be 43 µM and the IC90 came to 219 µM. The “TD50, median toxicity dose, a measure” value in series [3] (human) was determined as 281 µM. In series [4], the “Inhibition of intracellular tachyzoite replication” value is “robust replication inhibition”.

A word on the melting point: it is the temperature of the solid-liquid transition.

These data come from publication PMC6445228, “Synthesis and biological evaluation of anti-Toxoplasma gondii activity of a novel scaffold of thiazolidinone derivatives” (Journal of Enzyme Inhibition and Medicinal Chemistry, 2017).
